Experimental data published in patent US20190016689A1, “NOVEL FLUORINATED QUINAZOLINE DERIVATIVES AS EGFR INHIBITORS” (TRILLIUM THERAPEUTICS INC., priority 2016, published 2019).

Key:
NCI-H460 = test: NCI screening panel (SRB); type: cell-based; details: Homo sapiens, NCI-H460 (NSCLC), 48 h; for CC50: read-out: LC50 (the source's name)
OVCAR-3 = test: NCI screening panel (SRB); details: Homo sapiens, OVCAR-3, 48 h; for CC50: read-out: LC50
CAKI-1 = test: NCI screening panel (SRB); type: cell-based; details: Homo sapiens, CAKI-1 (Renal), 48 h; for CC50: read-out: LC50 (the source's name)
NCI-H322M = test: cells; details: Homo sapiens, 48 h; for CC50: read-out: LC50
A549/ATCC = test: NCI screening panel (SRB); type: cell-based; details: Homo sapiens, A549/ATCC (NSCLC), 48 h; for CC50: read-out: LC50 (the source's name)
EPHA6 = molecular target: T1, EPHA6 (Homo sapiens, UniProt Q9UF33); test: Kinase assays, selectivity panel (qPCR); details: read-out: % Control @ 300 nM
T1 sequence (Q9UF33 23-1036): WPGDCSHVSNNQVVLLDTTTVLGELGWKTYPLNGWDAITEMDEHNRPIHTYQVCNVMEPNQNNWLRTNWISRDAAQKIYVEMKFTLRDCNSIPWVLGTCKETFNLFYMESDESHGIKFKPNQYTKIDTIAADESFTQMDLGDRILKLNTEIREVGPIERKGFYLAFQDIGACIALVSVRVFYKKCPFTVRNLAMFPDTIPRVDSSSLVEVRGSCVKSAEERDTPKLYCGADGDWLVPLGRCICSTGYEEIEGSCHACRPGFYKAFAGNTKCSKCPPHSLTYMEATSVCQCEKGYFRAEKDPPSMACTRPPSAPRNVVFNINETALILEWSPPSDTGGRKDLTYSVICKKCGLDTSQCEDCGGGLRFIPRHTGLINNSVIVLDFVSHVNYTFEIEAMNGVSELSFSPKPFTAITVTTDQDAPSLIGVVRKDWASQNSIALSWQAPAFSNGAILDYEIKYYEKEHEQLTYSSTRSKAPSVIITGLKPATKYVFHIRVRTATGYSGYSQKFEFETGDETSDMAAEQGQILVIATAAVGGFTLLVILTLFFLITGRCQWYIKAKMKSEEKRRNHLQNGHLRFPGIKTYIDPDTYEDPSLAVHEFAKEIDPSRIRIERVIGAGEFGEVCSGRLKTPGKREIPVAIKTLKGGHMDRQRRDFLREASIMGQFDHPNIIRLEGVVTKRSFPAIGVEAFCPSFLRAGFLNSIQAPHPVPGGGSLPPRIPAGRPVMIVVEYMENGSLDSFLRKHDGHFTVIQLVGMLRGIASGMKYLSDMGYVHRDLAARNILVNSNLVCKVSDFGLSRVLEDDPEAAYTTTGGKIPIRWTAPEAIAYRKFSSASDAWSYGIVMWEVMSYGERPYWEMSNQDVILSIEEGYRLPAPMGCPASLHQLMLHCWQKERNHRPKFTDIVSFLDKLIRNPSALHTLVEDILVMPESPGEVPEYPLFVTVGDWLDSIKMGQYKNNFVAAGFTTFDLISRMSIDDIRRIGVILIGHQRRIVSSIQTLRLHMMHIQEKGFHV

SN12C = test: NCI screening panel (SRB); type: cell-based; details: Homo sapiens, SN12C (Renal), 48 h; for CC50: read-out: LC50 (the source's name)
NCI-H226 = test: NCI screening panel (SRB); type: cell-based; details: Homo sapiens, NCI-H226 (NSCLC), 48 h; for CC50: read-out: LC50 (the source's name)
[1] = molecular target: EGFR (L747-E749del, A750P) (Homo sapiens, UniProt P00533, A750P/DEL747-749); test: Kinase assays, selectivity panel (qPCR); details: read-out: % Control @ 300 nM
Chain of EGFR (L747-E749del, A750P) (P00533 with tags, fused parts or gaps DEL747-749/A750P): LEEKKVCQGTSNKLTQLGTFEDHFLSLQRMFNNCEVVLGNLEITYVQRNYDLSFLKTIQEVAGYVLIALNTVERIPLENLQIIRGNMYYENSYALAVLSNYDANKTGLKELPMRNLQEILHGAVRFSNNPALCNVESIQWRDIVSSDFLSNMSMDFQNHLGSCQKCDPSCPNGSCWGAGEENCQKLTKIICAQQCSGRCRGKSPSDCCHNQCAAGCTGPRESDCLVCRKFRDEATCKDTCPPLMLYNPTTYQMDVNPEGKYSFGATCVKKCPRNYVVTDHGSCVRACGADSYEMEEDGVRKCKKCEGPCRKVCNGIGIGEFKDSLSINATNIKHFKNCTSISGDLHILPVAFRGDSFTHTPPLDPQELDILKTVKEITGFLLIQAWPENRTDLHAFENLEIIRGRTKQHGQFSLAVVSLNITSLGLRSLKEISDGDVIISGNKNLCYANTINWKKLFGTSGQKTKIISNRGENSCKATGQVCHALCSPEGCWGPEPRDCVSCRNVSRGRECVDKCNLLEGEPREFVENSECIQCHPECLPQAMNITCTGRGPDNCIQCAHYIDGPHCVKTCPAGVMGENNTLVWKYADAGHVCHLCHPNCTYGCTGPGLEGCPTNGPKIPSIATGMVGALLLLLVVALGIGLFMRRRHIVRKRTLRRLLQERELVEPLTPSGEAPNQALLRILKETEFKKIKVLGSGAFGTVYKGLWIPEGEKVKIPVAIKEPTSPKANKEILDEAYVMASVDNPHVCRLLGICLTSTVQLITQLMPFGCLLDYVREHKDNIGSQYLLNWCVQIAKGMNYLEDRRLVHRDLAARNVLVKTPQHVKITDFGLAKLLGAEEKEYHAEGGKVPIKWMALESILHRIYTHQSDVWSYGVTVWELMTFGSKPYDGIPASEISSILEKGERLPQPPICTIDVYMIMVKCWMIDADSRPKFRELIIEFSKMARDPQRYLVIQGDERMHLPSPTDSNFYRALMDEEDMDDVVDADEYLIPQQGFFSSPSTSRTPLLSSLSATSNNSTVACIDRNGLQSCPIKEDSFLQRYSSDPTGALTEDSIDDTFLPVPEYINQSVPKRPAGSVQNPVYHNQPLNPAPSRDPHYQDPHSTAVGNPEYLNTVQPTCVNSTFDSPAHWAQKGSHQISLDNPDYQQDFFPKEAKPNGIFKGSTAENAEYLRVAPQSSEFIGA

M14 = test: cells; details: Homo sapiens, M14, 48 h; for CC50: read-out: LC50
CCRF-CEM = test: NCI screening panel (SRB); type: cell-based; details: Homo sapiens, CCRF-CEM (Leukemia), 48 h; for CC50: read-out: LC50 (the source's name)
HCT-15 = test: NCI screening panel (SRB); type: cell-based; details: Homo sapiens, HCT-15 (Colon), 48 h; for CC50: read-out: LC50 (the source's name)
EGFR (E746-A750del) = EGFR (E746-A750del) (Homo sapiens, UniProt P00533, DEL746-750); test: Kinase assays, selectivity panel (qPCR); details: read-out: % Control @ 300 nM
Chain of EGFR (E746-A750del) (P00533 with tags, fused parts or gaps DEL746-750): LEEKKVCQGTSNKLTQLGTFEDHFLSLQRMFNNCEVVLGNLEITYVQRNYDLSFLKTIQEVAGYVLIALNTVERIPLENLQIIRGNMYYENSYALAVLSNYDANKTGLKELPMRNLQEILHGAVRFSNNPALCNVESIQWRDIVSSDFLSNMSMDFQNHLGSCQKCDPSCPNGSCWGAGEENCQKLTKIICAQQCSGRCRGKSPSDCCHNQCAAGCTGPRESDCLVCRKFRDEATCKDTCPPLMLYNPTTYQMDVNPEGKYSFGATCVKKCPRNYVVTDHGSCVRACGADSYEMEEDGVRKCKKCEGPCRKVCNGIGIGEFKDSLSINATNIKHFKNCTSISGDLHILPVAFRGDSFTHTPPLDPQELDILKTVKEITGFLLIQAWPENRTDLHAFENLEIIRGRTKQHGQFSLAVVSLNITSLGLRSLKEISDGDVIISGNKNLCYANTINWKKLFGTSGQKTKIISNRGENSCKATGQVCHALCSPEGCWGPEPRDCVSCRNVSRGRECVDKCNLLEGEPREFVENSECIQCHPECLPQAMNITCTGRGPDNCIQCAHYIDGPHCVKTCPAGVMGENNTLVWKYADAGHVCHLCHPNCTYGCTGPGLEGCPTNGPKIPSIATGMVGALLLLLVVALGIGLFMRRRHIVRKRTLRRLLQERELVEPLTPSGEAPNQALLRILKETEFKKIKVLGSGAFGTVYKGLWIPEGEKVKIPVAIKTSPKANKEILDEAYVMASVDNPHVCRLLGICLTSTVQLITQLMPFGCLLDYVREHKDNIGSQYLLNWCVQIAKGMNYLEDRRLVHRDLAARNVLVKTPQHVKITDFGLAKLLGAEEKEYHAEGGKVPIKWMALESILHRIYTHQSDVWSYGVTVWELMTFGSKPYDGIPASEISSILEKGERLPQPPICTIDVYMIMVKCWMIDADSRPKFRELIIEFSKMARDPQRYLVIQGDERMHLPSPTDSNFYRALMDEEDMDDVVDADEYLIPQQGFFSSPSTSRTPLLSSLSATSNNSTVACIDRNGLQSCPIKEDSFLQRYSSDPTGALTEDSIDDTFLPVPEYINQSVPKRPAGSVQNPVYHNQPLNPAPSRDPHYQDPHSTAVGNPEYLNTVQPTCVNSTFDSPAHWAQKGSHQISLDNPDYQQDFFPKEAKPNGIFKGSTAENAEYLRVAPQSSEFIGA

RPMI-8226 = test: NCI screening panel (SRB); type: cell-based; details: Homo sapiens, RPMI-8226 (Leukemia), 48 h; for CC50: read-out: LC50 (the source's name)
Microsomal stability = type: in vitro ADME; details: Human liver microsomes with NADPH; for Remaining Percentage (%) after 60 min: 1 μM
Method: Working stocks were initially diluted to a concentration of 40.0 μM in 0.1 M potassium phosphate buffer before addition to the reaction vials. Pooled mouse (CD-1, male) or human (50 donors) liver microsomes were utilized at a final concentration of 0.5 mg/ml. […] Reactions were carried out at 37° C. in a shaker, and the final concentration of DMSO was kept constant at 0.01%. The final volume for each reaction was 100 μL, which includes the addition of an NADPH-Regeneration solution (NRS) mix. This NRS mix is comprised of glucose 6-phosphate dehydrogenase (0.4 U/mL), NADP+(1.3 mM), MgCl2 (3.3 mM), and glucose 6-phosphate (3.3 mM) in assay mixtures. […] Samples were then centrifuged at 4,000 rpm for 10 minutes to remove debris and precipitated protein. Approximately 150 μL of supernatant was subsequently transferred to a new 96 well microplate for LC/MS analysis.
Narrow-window mass extraction LC/MS analysis was performed for all samples using a Waters Xevo quadrupole time-of-flight (QTof) mass spectrometer and an ACQUITY UPLC system, to determine relative peak areas of parent compound.

SR = test: NCI screening panel (SRB); type: cell-based; details: Homo sapiens, SR (Leukemia), 48 h; for CC50: read-out: LC50 (the source's name)
HT29 = test: NCI screening panel (SRB); type: cell-based; details: Homo sapiens, HT-29, HT29 (Colon), 48 h; for CC50: read-out: LC50 (the source's name)

Compound | GI50 (NCI-H460) | CC50 (NCI-H460) | GI50 (OVCAR-3) | CC50 (OVCAR-3) | GI50 (CAKI-1) | CC50 (CAKI-1) | GI50 (NCI-H322M) | CC50 (NCI-H322M) | GI50 (A549/ATCC) | CC50 (A549/ATCC) | remaining activity at 0.3 µM (EPHA6) | GI50 (SN12C) | CC50 (SN12C) | GI50 (NCI-H226) | CC50 (NCI-H226) | remaining activity at 0.3 µM [1] | GI50 (M14) | CC50 (M14) | GI50 (CCRF-CEM) | CC50 (CCRF-CEM) | also measured
CN(C)C/C=C/C(=O)Nc1cc2c(Nc3ccc(F)c(Cl)c3F)ncnc2cc1OCCOC(F)F.O=C(O)/C=C\C(=O)O.O=C(O)/C=C\C(=O)O [Example I-9-MA, (E)-N-[4-(3-chloro-2,4-difluoro-anilino)-7-[2-(difluoromethoxy)ethoxy]quinazolin-6-yl]-4-(dimethylamino)but-2-enamide di-maleic acid salt] | 2.56 µM | 62 µM | 0.0811 µM | 7.44 µM | < 0.01 µM | 3.76 µM | < 0.01 µM | 28.2 µM | 0.77 µM | 36.3 µM | 3.5% | 0.054 µM | 28.1 µM | 1.71 µM | 9.7 µM | 0.45% | 1.44 µM | 11 µM | 2.47 µM | > 100 µM | GI50 (HCT-15): 0.675 µM; CC50 (HCT-15): 9.46 µM; remaining activity at 0.3 µM (EGFR (E746-A750del)): 3.6%; GI50 (RPMI-8226): 1.29 µM; CC50 (RPMI-8226): > 100 µM; half-life at 1 μM (Microsomal stability): 0.986 h; microsomal CLint at 1 μM (Microsomal stability): 23.4 µL/min/mg; Remaining Percentage (%) after 60 min (Microsomal stability): 47.73%; GI50 (SR): 0.439 µM; CC50 (SR): 59.2 µM; GI50 (HT29): 0.383 µM; CC50 (HT29): 62.6 µM
O=C(/C=C/CN1CCCCC1)Nc1cc2c(Nc3ccc(F)c(Cl)c3F)ncnc2cc1OCCOC(F)F.O=C(O)/C=C\C(=O)O.O=C(O)/C=C\C(=O)O [Example I-10-MA, (E)-N-[4-(3-chloro-2,4-difluoro-anilino)-7-[2-(difluoromethoxy)ethoxy]quinazolin-6-yl]-4-(1-piperidyl)but-2-enamide di-maleic acid salt] | 2.34 µM | 54.4 µM | 0.39 µM | 16.8 µM | 0.0229 µM | 6.53 µM | < 0.01 µM | 30.3 µM | 1 µM | 36.6 µM | 3.9% | 0.281 µM | 41.2 µM | 1.77 µM | > 100 µM | 0.9% | 1.82 µM | > 100 µM | 2.27 µM | > 100 µM | GI50 (HCT-15): 1.34 µM; CC50 (HCT-15): 23 µM; remaining activity at 0.3 µM (EGFR (E746-A750del)): 2.7%; GI50 (RPMI-8226): 1.64 µM; CC50 (RPMI-8226): 58.9 µM; half-life at 1 μM (Microsomal stability): 1.45 h; microsomal CLint at 1 μM (Microsomal stability): 15.9 µL/min/mg; Remaining Percentage (%) after 60 min (Microsomal stability): 60.64%; GI50 (SR): 0.816 µM; CC50 (SR): > 100 µM; GI50 (HT29): 1.14 µM; CC50 (HT29): 51.4 µM
